The values below are quoted from earlier work in PMC7744997 (Clinical Infectious Diseases: An Official Publication of …, 2020).

Each structure is given as a SMILES string.

The subject of this data set is RSV. The following applies: cited from earlier work.

Take `Cc1ccc([C@]23Cn4cccc4C(=O)N2CCN3C(=O)c2conc2C)cn1` [BTA-C585]: the “Outcome on viral load endpoints in clinical studies” value is given as “failure to meet viral load endpoints”. Consider `Cc1cn2nc([C@@H]3CCCCN3C(=O)c3cc(Cl)ccc3NS(C)(=O)=O)cc2nc1N1CC[C@H](N)C1` [presatovir], for which the “Outcome on viral load endpoints in clinical studies” value is reported as “failure to meet viral load endpoints”.
